Columns and labels:
[1] = target: T1, mGluR5 (Homo sapiens, UniProt P41594); test: Fluorescence-based Ca2+ mobilization assay; assay type: cell-based; conditions: HEK293 cells overexpressing mGluR5; L-glutamate at EC80
T1 construct: expressed in transfected cells; host or cells: HEK293
Experimental: In order to measure the activity on the mGluR5, an experiment was carried out to check the change in the intracellular Ca^2+ level using the HEK293 cell line permanently overexpressing the mGluR5. The cells in the cell culture medium were aliquoted into a 384-well plate coated with poly-D-lysine and cultured in a 37° C. incubator supplied with 5% CO2. The next day, the medium was removed and a dye loading buffer—in which a reagent capable of measuring Ca^2+ was dissolved—was added, and then incubated at 37° C. for 60 minutes. The test compounds were dissolved in 100% DMSO at a final concentration of 10 mM to make a stock solution. The starting concentration of […] was prepared from the stock solution, followed by serial dilutions to prepare working solutions (test compound working solutions). The test compound working solutions were added to the cells that were incubated in the dye loading buffer, which were maintained for 30 minutes at room temperature in a light-shielding state before measurement. The Ca^2+ level change induced by L-glutamate at EC80 concentration was measured for 2 minutes using FLIPR Tetra (MDS Analytical Technologies). The fluorescent Ca^2+ signal values in the presence of the test compounds were normalized to the fluorescent signal elicited by […] concentration of L-glutamate as 100% and that elicited by vehicle as 0% to estimate % inhibition of the test compounds. The efficacy of the test compounds was calculated as IC50 values and represented in Table 1. (+: 1,000-2,000 nM, ++: 500-1,000 nM, +++: 100-500 nM, ++++: less than 100 nM).

[2] = target: T2, human 5-HT2AR (Homo sapiens, UniProt P28223); test: HTRF-based IP1 accumulation assay (5-HT2AR antagonistic effect); assay type: cell-based; conditions: HEK293 cells overexpressing human 5-HT2AR; serotonin at EC80
T2 construct: expressed in transfected cells; host or cells: HEK293
T2 sequence (P28223 whole entry): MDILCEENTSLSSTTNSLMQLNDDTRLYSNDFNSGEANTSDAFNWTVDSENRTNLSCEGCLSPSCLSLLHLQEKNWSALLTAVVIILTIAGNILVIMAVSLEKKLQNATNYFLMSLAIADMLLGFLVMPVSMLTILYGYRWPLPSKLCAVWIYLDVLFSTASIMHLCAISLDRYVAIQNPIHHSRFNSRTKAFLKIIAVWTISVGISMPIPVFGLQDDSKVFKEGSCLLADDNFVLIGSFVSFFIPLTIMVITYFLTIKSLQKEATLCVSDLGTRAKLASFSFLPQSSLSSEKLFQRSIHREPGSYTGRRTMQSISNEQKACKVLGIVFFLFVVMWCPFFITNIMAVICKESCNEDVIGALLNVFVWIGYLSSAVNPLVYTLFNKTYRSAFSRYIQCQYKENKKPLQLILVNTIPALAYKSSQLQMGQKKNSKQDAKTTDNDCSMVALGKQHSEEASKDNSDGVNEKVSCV
Experimental: The 5-HT2AR antagonistic effect of the test compounds was confirmed by measuring the production amount of IP1 using the HEK293 cell line permanently overexpressing the human 5-HT2AR. The test compounds were dissolved in 100% DMSO to a final concentration of 10 mM. The starting concentration of 10 μM was prepared from the stock solution, followed by serial dilutions to prepare working solutions in a buffer containing lithium chloride (LiCl). The cells and compounds prepared in the test buffer were placed in a 96-well plate and incubated at room temperature for 10 minutes. Serotonin of EC80 concentration was added, followed by incubation at 37° C. for 30 minutes in a light-shielding state. To measure IP1 accumulation in cells, JP1-d2 acceptor and IP1-Cryptate donor-which are HTRF-based substances for fluorescence signals-were added and incubated for 1 hour at room temperature in a light-shielded state. The fluorescent emission signals of acceptor and donor were detected, and HTRF ratio values were substracted by mean value of serotonin control. The percentage of activation was calculated by normalization of the serotonin control (0%) and IP1 control (100%). The IC50 values of the test compounds are represented in Table 1. (+: 1,000-2,000 nM, ++: 500-1,000 nM, +++: 100-500 nM, ++++: less than 100 nM).

T1 sequence (P41594 21-1212): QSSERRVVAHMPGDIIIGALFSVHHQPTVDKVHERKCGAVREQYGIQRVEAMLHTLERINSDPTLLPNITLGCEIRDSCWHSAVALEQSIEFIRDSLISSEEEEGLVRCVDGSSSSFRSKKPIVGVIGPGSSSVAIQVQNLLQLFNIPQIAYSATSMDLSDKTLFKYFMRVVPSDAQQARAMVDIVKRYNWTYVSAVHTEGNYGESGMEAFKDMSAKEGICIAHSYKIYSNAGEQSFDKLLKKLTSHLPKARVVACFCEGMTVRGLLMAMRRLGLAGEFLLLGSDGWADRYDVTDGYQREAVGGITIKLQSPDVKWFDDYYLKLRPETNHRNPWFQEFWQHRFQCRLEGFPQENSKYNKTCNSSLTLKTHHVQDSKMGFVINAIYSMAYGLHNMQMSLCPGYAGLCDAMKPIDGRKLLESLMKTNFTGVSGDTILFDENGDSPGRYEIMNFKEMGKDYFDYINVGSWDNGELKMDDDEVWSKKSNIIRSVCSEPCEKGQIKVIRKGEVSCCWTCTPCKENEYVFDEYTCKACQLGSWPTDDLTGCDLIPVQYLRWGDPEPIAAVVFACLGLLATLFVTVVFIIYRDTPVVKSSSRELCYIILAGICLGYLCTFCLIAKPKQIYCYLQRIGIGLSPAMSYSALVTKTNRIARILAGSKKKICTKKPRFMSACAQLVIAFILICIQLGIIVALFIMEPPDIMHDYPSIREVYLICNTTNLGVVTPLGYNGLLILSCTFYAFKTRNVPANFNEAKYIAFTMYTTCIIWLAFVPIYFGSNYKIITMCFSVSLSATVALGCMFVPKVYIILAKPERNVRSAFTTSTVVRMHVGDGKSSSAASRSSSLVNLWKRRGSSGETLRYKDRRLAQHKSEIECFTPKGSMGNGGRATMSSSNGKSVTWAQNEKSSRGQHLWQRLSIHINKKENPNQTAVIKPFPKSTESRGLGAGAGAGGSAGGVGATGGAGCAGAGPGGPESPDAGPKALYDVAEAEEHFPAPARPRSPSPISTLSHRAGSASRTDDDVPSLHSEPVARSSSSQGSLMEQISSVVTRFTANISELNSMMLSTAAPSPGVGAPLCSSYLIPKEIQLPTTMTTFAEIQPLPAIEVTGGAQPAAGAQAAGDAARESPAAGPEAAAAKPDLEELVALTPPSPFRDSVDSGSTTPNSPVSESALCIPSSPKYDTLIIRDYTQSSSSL

| SMILES | IC50 [1] [µM] | IC50 [2] [µM] |
| --- | --- | --- |
| O=C(NCC1(NC2CC2)CCC1)c1ccc(C#Cc2ccccn2)cc1 [Example 8, N-((1-(cyclopropylamino)cyclobutyl)methyl)-4-(pyridin-2-ylethynyl)benzamide] | 0.5 to 1 | 1 to 2 |
| Cc1cc(C#Cc2ccc(C(=O)NCC3(NC4CC4)CCCC3)cc2)ccn1 [Example 21, N-((1-(cyclopropylamino)cyclopentyl)methyl)-4-((2-methylpyridin-4-yl)ethynyl)benzamide] | 1 to 2 | 0.5 to 1 |
| O=C(NCC1(F)COC1)c1ccc(C#Cc2ccc(F)cc2F)cc1 [Example 123, 4-((2,4-difluorophenyl)ethynyl)-N-((3-fluorooxetan-3-yl)methyl)benzamide] | 0.5 to 1 | < 0.1 |
| CC1(CNC(=O)c2ccc(C#Cc3ccccc3F)cc2)CCCO1 (stereo not shown) [Example 98, 4-((2-fluorophenyl)ethynyl)-N-((2-methyltetrahydrofuran-2-yl)methyl)benzamide] | < 0.1 | 0.5 to 1 |
| O=C(NCC1(CF)CCOCC1)c1ccc(C#Cc2ccccc2F)cc1 [Example 50, N-((4-(fluoromethyl)tetrahydro-2H-pyran-4-yl)methyl)-4-((2-fluorophenyl)ethynyl)benzamide] | < 0.1 | 0.5 to 1 |
| NC(=O)CC1(CNC(=O)c2ccc(C#Cc3ccccc3F)cc2)CCCCC1 [Example 77, N-((1-(2-amino-2-oxoethyl)cyclohexyl)methyl)-4-((2-fluorophenyl)ethynyl)benzamide] | < 0.1 | 1 to 2 |
| O=C(NCC1(NC2CC2)CCCCCC1)c1ccc(C#Cc2ccc(F)cc2)cc1 [Example 14, N-((1-(cyclopropylamino)cycloheptyl)methyl)-4-((4-fluorophenyl)ethynyl)benzamide] | 0.1 to 0.5 | < 0.1 |
| O=C(CC1(CNC(=O)c2ccc(C#Cc3ccccc3F)cc2)CCCCC1)NO [Example 79, 4-((2-fluorophenyl)ethynyl)-N-((1-(2-(hydroxyamino)-2-oxoethyl)cyclohexyl)methyl)benzamide] | 0.1 to 0.5 | 1 to 2 |
| O=C(NCC1CCCO1)c1ccc(C#Cc2ccccc2F)cc1 (stereo not shown) [Example 71, 4-((2-fluorophenyl)ethynyl)-N-((tetrahydrofuran-2-yl)methyl)benzamide] | < 0.1 | 0.5 to 1 |
| O=C(NCC1(F)CCCCC1)c1ccc(C#Cc2ccc(F)cc2F)cc1 [Example 73, 4-((2,4-difluorophenyl)ethynyl)-N-((1-fluorocyclohexyl)methyl)benzamide] | < 0.1 | 1 to 2 |
| O=C(NC[C@@H]1CCCOC1)c1ccc(C#Cc2ccc(F)cc2F)cc1 [Example 124, (S)-4-((2,4-difluorophenyl)ethynyl)-N-((tetrahydro-2H-pyran-3-yl)methyl)benzamide] | 0.1 to 0.5 | 0.1 to 0.5 |
| O=C(NCC1(NC2CC2)CCC1)c1ccc(C#Cc2ccc(F)cc2)cc1 [Example 6, N-((1-(cyclopropylamino)cyclobutyl)methyl)-4-((4-fluorophenyl)ethynyl)benzamide] | 0.5 to 1 | < 0.1 |
| CC1(CNC(=O)c2ccc(C#Cc3ccc(F)cc3)cc2)CCCCC1 [Example 104, 4-((4-fluorophenyl)ethynyl)-N-((1-methylcyclohexyl)methyl)benzamide] | < 0.1 | 1 to 2 |
| CC1(CNC(=O)c2ccc(C#Cc3ccc(F)cc3F)cc2)CCCC1 [Example 108, 4-((2,4-difluorophenyl)ethynyl)-N-((1-methylcyclopentyl)methyl)benzamide] | < 0.1 | 0.1 to 0.5 |
| CC1(CNC(=O)c2ccc(C#Cc3ccccc3F)c(F)c2)COC1 [Example 84, 3-fluoro-4-((2-fluorophenyl)ethynyl)-N-((3-methyloxetan-3-yl)methyl)benzamide] | 1 to 2 | 1 to 2 |
| O=C(NCC1(F)CCOCC1)c1ccc(C#Cc2ccccc2F)cc1 [Example 48, 4-((2-fluorophenyl)ethynyl)-N-((4-fluorotetrahydro-2H-pyran-4-yl)methyl)benzamide] | < 0.1 | 0.5 to 1 |
| CC1(CNC(=O)c2ccc(C#Cc3ccc(F)cc3F)cc2)CCCO1 (stereo not shown) [Example 119, 4-((2,4-difluorophenyl)ethynyl)-N-((2-methyltetrahydrofuran-2-yl)methyl)benzamide] | < 0.1 | < 0.1 |
| O=C(NC[C@H]1CCOC1)c1ccc(C#Cc2ccc(F)cc2F)cc1 [Example 109, (R)-4-((2,4-difluorophenyl)ethynyl)-N-((tetrahydrofuran-3-yl)methyl)benzamide] | 0.5 to 1 | 0.1 to 0.5 |
| CC1(CNC(=O)c2ccc(C#Cc3ccc(F)cc3F)cc2)CCC1 [Example 107, 4-((2,4-difluorophenyl)ethynyl)-N-((1-methylcyclobutyl)methyl)benzamide] | < 0.1 | < 0.1 |

Further lines, results first:

| IC50 [1] [µM] | IC50 [2] [µM] | SMILES |
| --- | --- | --- |
| 0.5 to 1 | 0.1 to 0.5 | O=C(O)CC1(CNC(=O)c2ccc(C#Cc3ccccc3F)cc2)CCCCC1 [Example 76, 2-(1-((4-((2-fluorophenyl)ethynyl)benzamido)methyl)cyclohexyl)acetic acid] |
| 0.1 to 0.5 | 0.5 to 1 | COC(=O)CC1(CNC(=O)c2ccc(C#Cc3ccccc3F)cc2)CCOCC1 [Example 75, methyl 2-(4-((4-((2-fluorophenyl)ethynyl)benzamido)methyl)tetrahydro-2H-pyran-4-yl)acetate] |
| 1 to 2 | < 0.1 | O=C(NCC1(NC2CC2)CCCCC1)c1ccc(C#Cc2ccc(F)cc2)cc1 [Example 19, N-((1-(cyclopropylamino)cyclohexyl)methyl)-4-((4-fluorophenyl)ethynyl)benzamide] |
| 0.1 to 0.5 | 0.5 to 1 | COC(=O)CC1(CNC(=O)c2ccc(C#Cc3ccccc3F)cc2)CCCCC1 [Example 74, methyl 2-(1-((4-((2-fluorophenyl)ethynyl)benzamido)methyl)cyclohexyl)acetate] |
| < 0.1 | 0.5 to 1 | CC1(CNC(=O)c2ccc(C#Cc3ccccc3F)cc2)CCOCC1 [Example 36, 4-((2-fluorophenyl)ethynyl)-N-((4-methyltetrahydro-2H-pyran-4-yl)methyl)benzamide] |
| 0.1 to 0.5 | < 0.1 | O=C(NCC1CCCCO1)c1ccc(C#Cc2ccc(F)cc2F)cc1 (stereo not shown) [Example 115, 4-((2,4-difluorophenyl)ethynyl)-N-((tetrahydro-2H-pyran-2-yl)methyl)benzamide] |
| 0.1 to 0.5 | 0.1 to 0.5 | CCC1(CNC(=O)c2ccc(C#Cc3ccc(F)cc3)cc2)COC1 [Example 112, N-((3-ethyloxetan-3-yl)methyl)-4-((4-fluorophenyl)ethynyl)benzamide] |
| 0.1 to 0.5 | 0.5 to 1 | [2H]C([2H])(NC(=O)c1ccc(C#Cc2ccccc2F)cc1)C1CCOCC1 [Example 68, 4-((2-fluorophenyl)ethynyl)-N-((tetrahydro-2H-pyran-4-yl)methyl-d2)benzamide] |
| < 0.1 | 0.1 to 0.5 | O=C(NC[C@H]1CCCOC1)c1ccc(C#Cc2ccc(F)cc2)cc1 [Example 99, (R)-4-((4-fluorophenyl)ethynyl)-N-((tetrahydro-2H-pyran-3-yl)methyl)benzamide] |
| 0.1 to 0.5 | < 0.1 | O=C(NCC1CC(F)(F)C1)c1ccc(C#Cc2ccc(F)cc2F)cc1 [Example 120, N-((3,3-difluorocyclobutyl)methyl)-4-((2,4-difluorophenyl)ethynyl)benzamide] |
| 0.1 to 0.5 | < 0.1 | O=C(NC[C@@H]1CCOC1)c1ccc(C#Cc2ccc(F)cc2)cc1 [Example 102, (S)-4-((4-fluorophenyl)ethynyl)-N-((tetrahydrofuran-3-yl)methyl)benzamide] |
| 0.1 to 0.5 | 0.5 to 1 | O=C(NCC1(CO)CCOCC1)c1ccc(C#Cc2ccccc2F)cc1 [Example 38, 4-((2-fluorophenyl)ethynyl)-N-((4-(hydroxymethyl)tetrahydro-2H-pyran-4-yl)methyl)benzamide] |
| 0.1 to 0.5 | 0.5 to 1 | CC1(C)CC(CNC(=O)c2ccc(C#Cc3ccccc3F)cc2)CO1 (stereo not shown) [Example 70, N-((5,5-dimethyltetrahydrofuran-3-yl)methyl)-4-((2-fluorophenyl)ethynyl)benzamide] |

Reference: patent US12435051B2, “Dual modulator of mGluR5 and 5-HT2A receptor, and use thereof” (Vivozon Inc., priority 2020, dated 2025)
